Experimental data from patent US12357603B2, “Acyl sulfonamides for treating cancer” (Bayer Aktiengesellschaft, priority 2019, dated 2025).
Read-outs that look alike come from different tables or passages of the source.

What was measured:
MDA-MB-436 cells = test: Proliferation assay MDA-MB-436, negative control cell line (Alamar Blue, 144 h); assay type: cell-based; details: arithmetic mean
Summary of the method: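 MDA-MB-436 cells (3000/well, DMEM/Ham's F12 with 2.5% FBS) treated 24 h after plating with compounds at 2.0×10E-5 to 2.0×10E-9 M (9 dilutions, 0.2% DMSO), triplicates, 144 h at 37 °C, 5% CO2. Viability by Alamar Blue, 2 h, fluorescence at 590 nm.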

[1] = target: Recombinant human His-tagged Kat6a protein (amino acids 194-810) (Homo sapiens (Human), UniProt Q92794); test: Kat6a activity assay (TR-FRET, acetylation of biotinylated Histone-H4-derived peptide); assay type: biochemical; details: 60 mins at 22° C., read-out: KAT6A-DPF/HAT domain IC50 [mol/l] (arithmetic mean)
Summary of the method: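 Sf9-expressed human His-Kat6a (aa 194-810) incubated 60 min at 22 °C with compounds (0.01-20 μM) in Tris pH 8 buffer containing 220 nM biotinylated H4 peptide (aa 1-24) and 600 nM acetyl-CoA. Acetyl-K8 detected by TR-FRET (665/620 nm ratio); IC50 by four-parameter fit versus DMSO controls.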

[2] = test system: ESR1 transcription (luciferase signal in MVLN cells); test: Repression of ESR1 transcription, luciferase reporter in MVLN cells; assay type: cell-based; details: inhibition of luciferase signal in MVLN cells, arithmetic mean
Summary of the method: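 MVLN cells (constitutive ER, stably carrying a Vitellogenin A2 hormone-responsive element–luciferase reporter) treated in duplicate; luciferase read after 24 h. Cell density checked by Alamar Blue fluorescence (530/590 nm) after 2 h to exclude cell-loss effects.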

ZR-75-1 cells = test: Proliferation assay ZR-75-1 (Alamar Blue, 144 h); assay type: cell-based; details: arithmetic mean, read-out: ZR75-1 proliferation assay, EC50 [M] (arithmetic mean)
Summary of the method: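 Cells seeded at 3000/well in RPMI 1640 with 2.5% FBS and treated 24 h later across 2.0×10E-5 to 2.0×10E-9 M (9 dilutions, 0.2% DMSO, triplicate). After 144 h at 37 °C, 5% CO2, viability read by Alamar Blue fluorescence at 590 nm following 2 h reagent incubation.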

[3] = target: Recombinant human GST-tagged Kat6b protein (431-end); test: Kat6b activity assay (TR-FRET, acetylation of biotinylated Histone-H4-derived peptide); assay type: biochemical; details: 30 mins at 22° C., read-out: KAT6B activity assay IC50 [mol/l] (arithmetic mean)
Experimental: Kat6b inhibitory activities of the compounds described in the present invention were quantified using a Fluorescence Resonance Energy Transfer (TR-FRET) assay which measures acetylation of a synthetic, biotinylated Histone-H4-derived peptide by the enzyme.
In this case 50 nl DMSO were used instead of compounds. […] IC50 values were determined by regression analysis based on a 4 parameter equation (minimum, maximum, ICM, Hill; Y=Max+(Min−Max)/(1+(X/ICso) Hill) using the Screener Software (Genedata).

[4] = Homo sapiens, MDA-MB-436, 144 h

Recombinant human His-tagged Kat6a protein (amino acids 194-810), sequence (Q92794 194-810): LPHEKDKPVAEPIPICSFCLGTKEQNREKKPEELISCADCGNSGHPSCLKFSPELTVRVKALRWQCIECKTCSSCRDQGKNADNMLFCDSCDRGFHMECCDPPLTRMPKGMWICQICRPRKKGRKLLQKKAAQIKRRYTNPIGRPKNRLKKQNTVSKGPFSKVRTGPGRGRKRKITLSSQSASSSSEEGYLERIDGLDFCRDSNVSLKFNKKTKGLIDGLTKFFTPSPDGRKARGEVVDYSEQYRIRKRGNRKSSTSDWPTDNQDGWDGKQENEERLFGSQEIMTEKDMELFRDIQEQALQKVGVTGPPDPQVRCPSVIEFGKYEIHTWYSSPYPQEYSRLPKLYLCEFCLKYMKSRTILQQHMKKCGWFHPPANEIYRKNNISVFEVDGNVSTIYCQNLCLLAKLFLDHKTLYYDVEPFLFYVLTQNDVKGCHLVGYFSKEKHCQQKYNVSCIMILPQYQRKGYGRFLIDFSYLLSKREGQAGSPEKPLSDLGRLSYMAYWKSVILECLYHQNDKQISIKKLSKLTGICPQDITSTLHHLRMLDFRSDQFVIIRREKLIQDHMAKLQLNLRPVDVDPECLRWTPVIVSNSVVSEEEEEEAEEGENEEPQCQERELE

| SMILES | EC50 (MDA-MB-436 cells; [4]) | IC50 [1] | IC50 ([2]; Homo sapiens, MVLN) | EC50 (ZR-75-1 cells; Homo sapiens, ZR-75-1, 144 h) | IC50 [3] | EC50 (MDA-MB-436 cells) | IC50 [2] | EC50 (ZR-75-1 cells) |
| --- | --- | --- | --- | --- | --- | --- | --- | --- |
| CN(C)c1ccc2cc(C(=O)NS(=O)(=O)c3ccccc3-c3cccc(Cl)c3)sc2c1 [Example 49, N-(3′-Chloro[1,1′-biphenyl]-2-sulfonyl)-6-(dimethylamino)-1-benzothiophene-2-carboxamide] | > 20000 nM | 310 nM | 2470 nM | 5.17e-06 M | 528 nM | – | – | – |
| CCS(=O)(=O)NC(=O)c1cc2ccc(N(C)C)cc2o1 [Example 61, 6-(Dimethylamino)-N-(ethanesulfonyl)-1-benzofuran-2-carboxamide] | > 20000 nM | 16100 nM | > 20000 nM | 1.77e-05 M | 9850 nM | – | – | – |
| CN(C)c1ccc2cc(C(=O)NS(C)(=O)=O)oc2c1 [Example 63, 6-(Dimethylamino)-N-(methanesulfonyl)-1-benzofuran-2-carboxamide] | > 20000 nM | 16500 nM | > 20000 nM | > 2e-05 M | > 20000 nM | – | – | – |
| CN(C)c1ccc2cc(C(=O)NS(=O)(=O)c3ccccc3OC3CC3)oc2c1 [Example 65, N-[2-(Cyclopropyloxy)benzene-1-sulfonyl]-6-(dimethylamino)-1-benzofuran-2-carboxamide] | > 20000 nM | 28.3 nM | 20.4 nM | 4.44e-08 M | 34.5 nM | – | – | – |
| CC(C)Oc1ccccc1S(=O)(=O)NC(=O)c1cc2ccc(N(C)C)cc2o1 [Example 66, 6-(Dimethylamino)-N-{2-[(propan-2-yl)oxy]benzene-1-sulfonyl}-1-benzofuran-2-carboxamide] | – | 49.4 nM | – | – | 59.1 nM | > 20000 nM | 31 nM | 5.47e-08 M |
| CCOc1ccc(C)cc1S(=O)(=O)NC(=O)c1cc2ccc(N(C)C)cc2o1 [Example 67, 6-(Dimethylamino)-N-(2-ethoxy-5-methylbenzene-1-sulfonyl)-1-benzofuran-2-carboxamide] | > 20000 nM | 42.9 nM | 40.2 nM | 4.08e-08 M | 118 nM | – | – | – |
| CN(C)c1ccc2cc(C(=O)NS(=O)(=O)c3ccccc3OC(C)(C)C)oc2c1 [Example 68, N-(2-tert-butoxybenzene-1-sulfonyl)-6-(dimethylamino)-1-benzofuran-2-carboxamide] | > 20000 nM | 69.6 nM | 51 nM | 8.44e-08 M | 84.5 nM | – | – | – |
| COc1ccc2cccnc2c1S(=O)(=O)NC(=O)c1cc2ccc(N(C)C)cc2o1 [Example 70, 6-(Dimethylamino)-N-(7-methoxyquinoline-8-sulfonyl)-1-benzofuran-2-carboxamide] | > 20000 nM | 122 nM | 71.3 nM | 1.63e-07 M | 109 nM | – | – | – |
| CN(C)c1ccc2cc(C(=O)NS(=O)(=O)c3ccccc3OCC3CC3)oc2c1 [Example 71, N-[2-(Cyclopropylmethoxy)benzene-1-sulfonyl]-6-(dimethylamino)-1-benzofuran-2-carboxamide] | > 20000 nM | 72.4 nM | 71.9 nM | 1.92e-07 M | 131 nM | – | – | – |
| CN(C)c1ccc2cc(C(=O)NS(=O)(=O)c3ccccc3OCCF)oc2c1 [Example 72, 6-(Dimethylamino)-N-[2-(2-fluoroethoxy)benzene-1-sulfonyl]-1-benzofuran-2-carboxamide] | > 20000 nM | 96.7 nM | 76.5 nM | 1.31e-07 M | 190 nM | – | – | – |
| CN(C)c1ccc2cc(C(=O)NS(=O)(=O)c3cccc4cccnc34)oc2c1 [Example 73, 6-(Dimethylamino)-N-(quinoline-8-sulfonyl)-1-benzofuran-2-carboxamide] | > 20000 nM | 117 nM | 99.4 nM | 2.48e-07 M | 78.5 nM | – | – | – |
| CN(C)c1ccc2cc(C(=O)NS(=O)(=O)c3ccccc3OCC(F)(F)F)oc2c1 [Example 74, 6-(Dimethylamino)-N-[2-(2,2,2-trifluoroethoxy)benzene-1-sulfonyl]-1-benzofuran-2-carboxamide] | > 20000 nM | 128 nM | 117 nM | 1.65e-07 M | 228 nM | – | – | – |
